# Source: patent US9585871B2, “Method for treating and curing leishmaniosis using fexinidazole” (Merial Limited, priority 2013, dated 2017)
# Assays:
# [1] = tested on: Leishmania donovani amastigotes grown in macrophages; details: Wyllie S et al., 2012; cited from earlier work
# [2] = Multiple dosing study in dogs: systemic exposure (plasma) to fexinidazole and its metabolites; format: in vivo, dog; details: dog, in vivo, po, 800 mg/kg/day
# Experimental: In an embodiment, the fexinidazole may be administered to the canine as an aqueous oral suspension, comprising 5% TWEEN 80 and 0.5% Methyl cellulose 400 cP (METHOCEL). Provided in this format, fexinidazole suspensions of 5, 20, and 80 mg fexinidazole/mL may be prepared such that 10 mL of each concentration contains 50, 200, and 800 mg fexinidazole, respectively.
# Moreover, inventors expect that a wide variety of dosing regimens are now available to the skilled person to achieve the necessary and sufficient fexinidazole plasma levels. For example, and as further outlined in the Examples below, any dosing regimen that produces substantially similar fexinidazole plasma levels, as compared to those levels produced by giving the dogs about 60 mg/kg/day for about twenty-eight days, is expected to substantially or completely eliminate the Leishmania parasites. Table 1 presents the systemic fexinidazole exposure following dosing of dogs with 50, 200, and 800 mg/kg/day.
SMILES,activity against Leishmania donovani amastigotes grown in macrophages [1],AUC0-24 [2]
Cn1c([N+](=O)[O-])cnc1COc1ccc(S(C)(=O)=O)cc1 [sulfone metabolite],active,
Cn1c([N+](=O)[O-])cnc1COc1ccc([S+](C)[O-])cc1 (stereo not drawn) [sulfoxide metabolite],active,74.3 ± 14.4^(1) μg · hour/mL
